Assay results taken from a compilation of properties of binary mixtures (doi:10.1021/acs.jced.2c00096).

Experiment: xn = mol fraction of the nth substance listed
Conditions: 100 kPa

CCCC[N+]1(C)CCCC1.O=S(=O)([O-])C(F)(F)F + O
Conditions | electrical conductivity [S/m] | viscosity [mPa·s]
288.15 K, x2 = 0.1203 | 0.173 | 196
288.15 K, x2 = 0.1956 | 0.21 | 151.5
288.15 K, x2 = 0.4836 | 0.458 | 56.8
288.15 K, x2 = 0.5819 | 0.603 | 40.25
288.15 K, x2 = 0.6794 | 0.78 | 27.75
288.15 K, x2 = 0.8612 | 1.43 | 10.36
288.15 K, x2 = 0.95 | 1.75 | 3.99
293.15 K, x2 = 0.0597 | 0.188 | 181.1
293.15 K, x2 = 0.1203 | 0.22 | 148.6
293.15 K, x2 = 0.1956 | 0.266 | 116.3
293.15 K, x2 = 0.3766 | 0.426 | 64.1
293.15 K, x2 = 0.4836 | 0.563 | 45
293.15 K, x2 = 0.5819 | 0.732 | 32.19
293.15 K, x2 = 0.6794 | 0.954 | 22.37
293.15 K, x2 = 0.7673 | 1.26 | 15.18
293.15 K, x2 = 0.95 | 2.07 | 3.36
298.15 K, x2 = 0.1203 | 0.276 | 114.9
298.15 K, x2 = 0.1956 | 0.334 | 91
298.15 K, x2 = 0.3197 | 0.453 | 61.1
298.15 K, x2 = 0.4836 | 0.68 | 36.38
298.15 K, x2 = 0.5819 | 0.886 | 26.17
298.15 K, x2 = 0.8612 | 2.04 | 7.14
303.15 K, x2 = 0.0597 | 0.299 | 108.4
303.15 K, x2 = 0.1203 | 0.343 | 90.6
303.15 K, x2 = 0.1956 | 0.406 | 72.5
303.15 K, x2 = 0.3197 | 0.545 | 49.4
303.15 K, x2 = 0.4836 | 0.808 | 29.8
303.15 K, x2 = 0.5819 | 1.04 | 21.59
303.15 K, x2 = 0.6794 | 1.37 | 15.22
303.15 K, x2 = 0.7673 | 1.79 | 10.5
303.15 K, x2 = 0.8612 | 2.38 | 6.05
308.15 K, x2 = 0.0597 | 0.364 | 86.1
308.15 K, x2 = 0.1956 | 0.488 | 58.6
308.15 K, x2 = 0.3197 | 0.647 | 40.48
308.15 K, x2 = 0.4836 | 0.953 | 24.76
308.15 K, x2 = 0.5819 | 1.23 | 18.04
308.15 K, x2 = 0.6794 | 1.6 | 12.8
308.15 K, x2 = 0.7673 | 2.08 | 8.89
308.15 K, x2 = 0.8612 | 2.77 | 5.14
308.15 K, x2 = 0.95 | 3.16 | 2.17
313.15 K, x2 = 0.0597 | 0.435 | 69.4
313.15 K, x2 = 0.1203 | 0.497 | 58.9
313.15 K, x2 = 0.3197 | 0.76 | 33.61
313.15 K, x2 = 0.3766 | 0.866 | 28.63
313.15 K, x2 = 0.4836 | 1.11 | 20.81
313.15 K, x2 = 0.6794 | 1.86 | 10.89
313.15 K, x2 = 0.7673 | 2.4 | 7.6
313.15 K, x2 = 0.8612 | 3.17 | 4.47
313.15 K, x2 = 0.95 | 3.56 | 1.91
318.15 K, x2 = 0.0597 | 0.52 | 56.7
318.15 K, x2 = 0.1956 | 0.68 | 39.82
318.15 K, x2 = 0.3766 | 1.01 | 24.15
318.15 K, x2 = 0.4836 | 1.28 | 17.69
318.15 K, x2 = 0.5819 | 1.63 | 13.03
318.15 K, x2 = 0.6794 | 2.14 | 9.36
318.15 K, x2 = 0.7673 | 2.75 | 6.57
318.15 K, x2 = 0.8612 | 3.61 | 3.9
318.15 K, x2 = 0.95 | 4 | 1.7
323.15 K, x2 = 0.1203 | 0.686 | 40.38
323.15 K, x2 = 0.3197 | 1.03 | 23.95
323.15 K, x2 = 0.3766 | 1.16 | 20.59
323.15 K, x2 = 0.4836 | 1.47 | 15.18
323.15 K, x2 = 0.7673 | 3.11 | 5.73
323.15 K, x2 = 0.8612 | 4.06 | 3.43
328.15 K, x2 = 0.0597 | 0.713 | 39.32
328.15 K, x2 = 0.1203 | 0.796 | 34.03
328.15 K, x2 = 0.1956 | 0.921 | 28.34
328.15 K, x2 = 0.3197 | 1.17 | 20.52
328.15 K, x2 = 0.4836 | 1.67 | 13.15
328.15 K, x2 = 0.5819 | 2.12 | 9.79
328.15 K, x2 = 0.6794 | 2.76 | 7.1
328.15 K, x2 = 0.7673 | 3.5 | 5.04
328.15 K, x2 = 0.8612 | 4.55 | 3.04
328.15 K, x2 = 0.95 | 4.93 | 1.37
333.15 K, x2 = 0.0597 | 0.83 | 33.27
333.15 K, x2 = 0.1203 | 0.918 | 28.94
333.15 K, x2 = 0.1956 | 1.05 | 24.27
333.15 K, x2 = 0.3197 | 1.33 | 17.75
333.15 K, x2 = 0.3766 | 1.48 | 15.39
333.15 K, x2 = 0.4836 | 1.88 | 11.49
333.15 K, x2 = 0.6794 | 3.09 | 6.26
333.15 K, x2 = 0.7673 | 3.91 | 4.46
333.15 K, x2 = 0.8612 | 5.05 | 2.71
333.15 K, x2 = 0.95 | 5.42 | 1.24
